Results reported in patent US20060116505A1, “Glucose and/or fructose transporter naglt1 and its gene” (priority 2002, published 2006).

Columns and labels:
[1] = test system: renal brush border membrane vesicles; assay: Na+-dependent uptake of [14C] fructose by renal brush border membrane vesicles; type: biochemical, rat; conditions: [14C] fructose 2 mM, 15 seconds at 25° C., glucose analog 30 mM, phloridzin or phloretin 50 μM; for Na+-dependent uptake of [14C] fructose by renal brush border membrane vesicles: KCl uptake deducted
Description: Membrane vesicles (20 μl) suspended in 100 mM mannitol and 10 mM HEPES (pH 7.5) were incubated with a substrate mixture (20 μl) containing 100 mM mannitol, 200 mM NaCl (black circle: ●) or KCl (white circle: ∘), 4 mM [^14C] fructose and 10 mM HEPES (pH 7.5) at 25° C. The values indicate mean±S.E.M of 3 independent experiments, respectively. Each experiment was conducted with brush border membrane vesicles isolated from 5 rats.
Na^+-dependent uptake of fructose by renal brush border membrane vesicles was analyzed in the presence of NaCl in an incubation buffer solution of various concentrations (0.1 to 20 mM) for 15 seconds at 25° C., and the uptake in case where NaCl is substituted with KCl was deduced. […] Each point indicates mean±S.E.M of 3 measurements. The apparent Km and Vmax values were obtained from 3 independent experiments.
In the presence and absence of phloridzin (50 μM) or phloretin (50 μM), a glucose analog (30 mM), membrane vesicles (20 μl) suspended in 100 mM mannitol and 10 mM HEPES (pH 7.5) were incubated with a substrate mixture (20 μl) containing [^14C] fructose (finally, 2 mM, 74 kBq/ml) for 15 seconds at 25° C., and the uptake in case where NaCl is substituted with KCl was deduced. […] The values indicate mean±S.E.M of 3 independent experiments, respectively.

rNaGLT1 = molecular target: T1, rNaGLT1 (Rattus norvegicus, UniProt Q80T22, M166I/S3F); assay: Uptake of [14C] fructose by HEK293 cells transfected with rNaGLT1; type: cell-based; conditions: [14C] fructose 0.1 mM, 15 minutes at 37° C., glucose analog 30 mM, phloridzin or phloretin 50 μM; for Uptake of [14C] fructose by HEK293 cells expressing rNaGLT1: vector uptake deducted
T1 construct: expressed in transfected cells; host or cells: HEK293 cells, transient transfection, assayed 2 days later
T1 sequence (Q80T22 1-484 S3F/M166I): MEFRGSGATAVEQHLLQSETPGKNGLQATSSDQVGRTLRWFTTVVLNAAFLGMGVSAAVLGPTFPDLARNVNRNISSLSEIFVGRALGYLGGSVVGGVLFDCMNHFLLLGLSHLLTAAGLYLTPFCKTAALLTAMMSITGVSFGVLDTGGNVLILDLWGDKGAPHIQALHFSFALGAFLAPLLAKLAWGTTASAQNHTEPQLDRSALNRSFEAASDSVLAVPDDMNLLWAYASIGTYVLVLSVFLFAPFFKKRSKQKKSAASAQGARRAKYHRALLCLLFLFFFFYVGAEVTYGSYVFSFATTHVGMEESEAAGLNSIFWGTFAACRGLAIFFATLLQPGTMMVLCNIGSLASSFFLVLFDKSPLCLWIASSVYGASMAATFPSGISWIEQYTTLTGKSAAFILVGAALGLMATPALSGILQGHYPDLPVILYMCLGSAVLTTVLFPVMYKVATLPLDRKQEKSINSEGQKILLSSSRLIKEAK
Description: As to HEK293 cells incubated with buffer solution containing glucose analog (0.1 mM, 37 kBq/ml) for 15 minutes at 37° C., uptake analysis was conducted 2 days after the transfection of a vector (white column, 0.8 μg/well) or rNaGLT1 cDNA (black column, 0.8 μg/well). Each column indicates mean±S.E.M obtained from 3 single layers.
In the presence and absence of phloridzin (50 μM) or phloretin (50 μM), a glucose analog (30 mM), the uptake of [^14C] fructose (0.1 mM, 37 kBq/ml) by HEK293 cells transfected with rNaGLT1 was measured for 15 minutes at 37° C., and the uptake measured in HEK293 cells transfected with a vector was deducted. […] The values indicate mean±S.E.M of 3 independent experiments, respectively.

NaGLT1 [2] = molecular target: T2, NaGLT1 (Rattus norvegicus, UniProt Q80T22, M166I/S3F); assay: Effect of inhibitors on uptake of [14C]-labeled αMeGlc by NaGLT1-expressing oocytes; type: cell-based
T2 construct: expressed in transfected cells; host or cells: Xenopus oocytes injected with NaGLT1 RNA synthesized in vitro
T2 sequence (Q80T22 1-484 S3F/M166I): T1 sequence (Q80T22 1-484 S3F/M166I)
Description: (§1) Uptake activity of NaGLT1 cRNA-injected cell and water-injected oocyte to [U-^14C]-α-methyl-D-glucopyranoside (α-MeGlc), D-[1-^14C] galactose, D-[U-^14C] mannose, D-[U-^14C] fructose, [1,2-^3H]-2-deoxy-glucose, D-[1-^3H] mannitol, [U-^14C] sucrose was measured. At that time, incubation was conducted in a buffer solution comprising 96 mM NaCl, 2 mM KCl, 1.8 mM CaCl2, 1 mM MgCl2, 5 mM HEPES (pH 7.4). Further, when extracellular Na^+ concentration dependency was conducted, the concentration of NaCl was adjusted to be within the range of 9.6 to 96 mM, and the final osmotic pressure was kept constant by making up for the shortage to 96 mM with choline chloride (FIGS. 6 and 7).

NaGLT1 [3] = molecular target: T2, NaGLT1; assay: Uptake of radio-labeled saccharides by NaGLT1-expressing Xenopus oocytes; type: cell-based
Description: Transportation activity of NaGLT1 was examined with the expression system of Xenopus oocytes (hereinafter abbreviated as oocytes). First, in order to examine the selectivity of various saccharides, NaGLT1 RNA synthesized in vitro was injected into the oocyte and incubated for 2 days at 18° C., then used for the experiment.
as §1
Next, concentration dependency of αMeGlc uptake was examined by using NaGLT1-expressing oocytes. […] In addition, the effect of extracellular Na^+ ion concentration on the uptake of αMeGlc mediated by NaGLT1 was analyzed. First, extracellular Na^+ concentration was varied from 0 to 96 mM, at the state wherein membrane potential difference was eliminated by the addition of 7 μM valinomycin, and the effect of extracellular Na^+ on the uptake of αMeGlc by rNaGLT1 was examined. […] Further, by examination of dose- or extracellular Na^+-dependancy to the uptake of αMeGlc by rNaGLT1 (FIGS. 6A and 6C), Vmax value (the maximum transport rate) and Km value were calculated for each case. Based on those values, Hill plot (logarithmic values of the figure calculated by dividing Vmax by transport rate V when the abscissa axis is the concentration of varied substrate or ion, and ordinate axis is each substrate (or ion) concentration) was conducted (FIGS. 6B and 6D) and Hill coefficient was calculated. […]

Compound | Na+-dependent uptake of [14C] fructose by renal brush border membrane vesicles, % of control [1] | Na+-dependent uptake of [14C] fructose by renal brush border membrane vesicles [1] [Pmol/mg protein/sec] | Uptake of [14C] fructose by HEK293 cells expressing rNaGLT1, % of control (rNaGLT1) | Uptake of [14C] fructose by HEK293 cells expressing rNaGLT1 (rNaGLT1) [Pmol/mg protein/min] | effect on the uptake of [14C]-labeled αMeGlc (NaGLT1 [2]) | Hill coefficient (NaGLT1 [3]; Hill plot of αMeGlc uptake by rNaGLT1, dose- or extracellular Na+-dependency) | Km (NaGLT1 [3]; NaGLT1-expressing oocytes, concentration dependency, read-out: Km value of αMeGlc uptake) [mM] | uptake of radio-labeled saccharide in comparison to water-injected oocytes (NaGLT1 [3]; NaGLT1 RNA-injected Xenopus oocytes, incubated 2 days at 18° C.)
OC[C@H]1O[C@H](CO)[C@@H](O)[C@@H]1O [2,5-AM] | 78 % of control | 38.6 ± 2.6 | 40 % of control | 1.16 ± 0.16 | – | – | – | –
O=CC[C@@H](O)[C@H](O)[C@H](O)CO [2-DG, 2-deoxyglucose] | 34 % of control | 16.8 ± 3.7 | 70 % of control | 2.04 ± 0.19 | extremely strong inhibitory effect | – | – | –
CO[C@@H]([C@H](O)[C@H](O)CO)[C@@H](O)C=O [3-OMG, 3-O-methylglucose] | 95 % of control | 47.1 ± 4.5 | 89 % of control | 2.60 ± 0.15 | no effect | – | – | –
O=C[C@H](O)[C@@H](O)[C@H](O)[C@H](O)CO [D-glucose] | – | – | – | – | extremely strong inhibitory effect | – | – | –
O=C(CO)[C@@H](O)[C@H](O)[C@H](O)CO [Fructose, fructose] | 11 % of control | 5.4 ± 2.1 | 8 % of control | 0.22 ± 0.06 | weak inhibitory effect | – | – | –
O=C[C@H](O)[C@@H](O)[C@@H](O)[C@H](O)CO [Galactose, galactose] | 71 % of control | 35.2 ± 3.3 | 99 % of control | 2.88 ± 0.23 | no effect | – | – | –
O=C[C@@H](O)[C@H](O)[C@@H](O)[C@@H](O)CO [L-glucose] | – | – | – | – | no effect | – | – | –
O=C(CCc1ccc(O)cc1)c1c(O)cc(O)cc1O [Phloretin, phloretin] | 72 % of control | 35.8 ± 3.5 | 33 % of control | 0.97 ± 0.09 | weak inhibitory effect | – | – | –
O=C(CCc1ccc(O)cc1)c1c(O)cc(O)cc1O[C@@H]1O[C@H](CO)[C@@H](O)[C@H](O)[C@H]1O [Phloridzin, phloridzin] | – | – | 12 % of control | – | – | – | – | –
OC[C@H]1O[C@@](CO)(O[C@H]2O[C@H](CO)[C@@H](O)[C@H](O)[C@H]2O)[C@@H](O)[C@@H]1O [Sucrose, sucrose] | 96 % of control | 47.3 ± 6.0 | 144 % of control | 4.20 ± 0.17 | – | – | – | –
CO[C@H]1O[C@H](CO)[C@@H](O)[C@H](O)[C@H]1O [αMeGlc, α-methyl-D-glucopyranoside] | 48 % of control | 23.8 ± 2.1 | 42 % of control | 1.24 ± 0.13 | extremely strong inhibitory effect | 1.06 | 3.71 ± 0.09 | significantly high
